Laboratory results: patent US20220281825A1 (priority 2016, published 2022)

Key:
TCRV-p = experiment: organism not typed; format: cell-based; conditions: Vero, 24 h, read-out: TCRV-p EC50 (nM)
JUNV-p = experiment: organism not typed; format: cell-based, Junin (JUNV); conditions: Vero, 24 h, read-out: JUNV-p EC50 (nM)
LASV-p = experiment: organism not typed; format: cell-based, Lassa (LASV); conditions: Vero, 24 h, read-out: LASV-p EC50 (nM)
in vitro = conditions: African green monkey
MACV-p = experiment: organism not typed; format: cell-based, Machupo (MACV); conditions: Vero, 24 h, read-out: MACV-p EC50 (nM)
GTOV-p = experiment: organism not typed; format: cell-based, Guanarito (GTOV); conditions: Vero, 24 h, read-out: GTOV-p EC50 (nM)

Compound	EC50 (TCRV-p) [nM]	EC50 (JUNV-p) [nM]	EC50 (LASV-p) [nM]	CC50 (in vitro) [nM]	EC50 (MACV-p) [nM]	EC50 (GTOV-p) [nM]
COc1ccc(-n2cnc3ccc(-c4ccc(CO)cc4)cc32)cc1 [Example A10, {4-[1-(4-methoxyphenyl)-1H-1,3-benzodiazol-6-yl]phenyl}methanol]	> 25	> 25	21.8	4560	> 25	
COc1ccc(-n2cnc3ccc(-c4ccc(O)cc4)cc32)cc1 [Example A13, 4-[1-(4-methoxyphenyl)-1H-1,3-benzodiazol-6-yl]phenol]	> 25	> 25	5	1270	> 25	
COc1ccc(-n2cnc3ccc(-c4ccc(C(C)=O)cc4)cc32)cc1 [Example A14, 1-{4-[1-(4-methoxyphenyl)-1H-1,3-benzodiazol-6-yl]phenyl}ethan-1-one]	> 25	> 25	7.4	1950	> 25	
COc1ccc(-n2cnc3ccc(-c4ccc(N5CCCCC5)cc4)cc32)cc1 [Example A15, 1-(4-methoxyphenyl)-6-[4-(piperidin-1-yl)phenyl]-1H-1,3-benzodiazole]	29.6	2.23	14.7	12900	24.9	
CC(C)Oc1ccc(-n2cnc3ccc(-c4ccc(N5CCOCC5)cc4)cc32)cc1 [Example A21, 6-[4-(morpholin-4-yl)phenyl]-1-[4-(propan-2-yloxy)phenyl]-1H-1,3-benzodiazole]	> 25	3.5	3.07	5220	14.4	
CC(=O)c1ccc(-c2ccc3ncn(-c4ccc(OC(C)C)cc4)c3c2)cc1 [Example A26, 1-(4-{1-[4-(propan-2-yloxy)phenyl]-1H-1,3-benzodiazol-6-yl}phenyl)ethan-1-one]	1.45	0.81	0.59	7520	0.7	0.73
CC(C)Oc1ccc(-c2ccc3ncn(-c4ccc5[nH]ccc5c4)c3c2)cc1 [Example A27, 1-(1H-indol-5-yl)-6-[4-(propan-2-yloxy)phenyl]-1H-1,3-benzodiazole]	2.57	0.39	0.6	3860	0.38	
CC(C)Oc1ccc(-n2cnc3ccc(-c4ccc5[nH]ccc5c4)nc32)cc1 [Example B3, 5-{3-[4-(propan-2-yloxy)phenyl]-3H-imidazo[4,5-b]pyridin-5-yl}-1H-indole]	27.7	1.79	1.01	> 100000	10.3	
CC(=O)c1ccc(-c2ccc3ncn(-c4ccc(OC(C)C)cc4)c3n2)cc1 [Example B4, 1-(4-{3-[4-(propan-2-yloxy)phenyl]-3H-imidazo[4,5-b]pyridin-5-yl}phenyl)ethan-1-one]	14.9	4.31	0.956	19700	18.6	
CC(C)Oc1ccc(-n2cnc3cnc(-c4ccc5[nH]ccc5c4)cc32)cc1 [Example B7, 5-{1-[4-(propan-2-yloxy)phenyl]-1H-imidazo[4,5-c]pyridin-6-yl}-1H-indole]	> 25	16.2	8.18	13900	24.1	
CC(C)Oc1ccc(-n2cnc3cnc(-c4ccc(C(C)(C)O)cc4)nc32)cc1 [Example B9, 2-(4-{9-[4-(propan-2-yloxy)phenyl]-9H-purin-2-yl}phenyl)propan-2-ol]	> 25	11.9	19.7	27700	29.7	
CC(C)Oc1ccc(-n2cnc3cnc(-c4ccc5[nH]ccc5c4)nc32)cc1 [Example B11, 2-(1H-indol-5-yl)-9-[4-(propan-2-yloxy)phenyl]-9H-purine]	> 25	25	6.4	24200	25	
CC(=O)c1ccc(-c2ccc3nnn(-c4ccc(OC(C)C)cc4)c3c2)cc1 [Example B14, 1-(4-{1-[4-(propan-2-yloxy)phenyl]-1H-1,2,3-benzotriazol-6-yl}phenyl)ethan-1-one]	> 25	1.36	1.05	7390	15.4	
CC(C)Oc1ccc(-c2cnc3ccc(-c4ccc(C(F)F)cc4)cn23)cc1 [Example C5, 6-[4-(difluoromethyl)phenyl]-3-[4-(propan-2-yloxy)phenyl]imidazo[1,2-a]pyridine]	> 25	9.09	4.1	4690	31.4	
CC(C)Oc1ccc(-c2cnc3ccc(-c4ccc5[nH]ncc5c4)cn23)cc1 [Example C10, 5-{3-[4-(propan-2-yloxy)phenyl]imidazo[1,2-a]pyridin-6-yl}-1H-indazole]	> 25	19	4.61	> 100	28.9	
CC(C)Oc1ccc(-c2cnc3ccc(-c4ccc5c(ccn5C)c4)cn23)cc1 [Example C22, 1-methyl-5-{3-[4-(propan-2-yloxy)phenyl]imidazo[1,2-a]pyridin-6-yl}-1H-indole]	4.94	0.415	2.33	24400	0.335	0.45
CC(C)Oc1ccc(-c2cnc3ccc(-c4ccc(C5(O)COC5)cc4)cn23)cc1 [Example C28, 3-(4-{3-[4-(propan-2-yloxy)phenyl]imidazo[1,2-a]pyridin-6-yl}phenyl)oxetan-3-ol]	> 25	14.9	17.3	> 100000	> 25	
CC(C)Oc1ccc(-c2ccc3ncc(-c4ccc(C(C)(C)O)cc4)n3c2)cc1 [Example C38, 2-(4-{6-[4-(propan-2-yloxy)phenyl]imidazo[1,2-a]pyridin-3-yl}phenyl)propan-2-ol]	1.77		0.84			0.2
COCCOc1ccc(-c2cnc3ccc(-c4ccc(OC(C)C)cc4)cn23)cc1 [Example C42, 3-[4-(2-methoxyethoxy)phenyl]-6-[4-(propan-2-yloxy)phenyl]imidazo[1,2-a]pyridine]	11.7	2.6	3.08	5360	23.1	
CC(C)Oc1ccc(-c2ccc3ncc(-c4ccc(C5(O)CC5)cc4)n3c2)cc1 [Example C44, 1-(4-{6-[4-(propan-2-yloxy)phenyl]imidazo[1,2-a]pyridin-3-yl}phenyl)cyclopropan-1-ol]	0.135	0.07	0.23	> 100	0.32	
CC(C)Oc1ccc(-n2ncc3ccc(-c4ccc5[nH]ccc5c4)cc32)cc1 [Example D2, 6-(1H-indol-5-yl)-1-[4-(propan-2-yloxy)phenyl]-1H-indazole]	> 25	17.8	7.99	4340	22.5	
CC(=O)c1ccc(-c2ccc3cnn(-c4ccc(OC(C)C)cc4)c3c2)cc1 [Example D3, 1-(4-{1-[4-(propan-2-yloxy)phenyl]-1H-indazol-6-yl}phenyl)ethan-1-one]	> 25	20.2	7.04	15900	15.5	
CC(C)Oc1ccc(-n2ccc3ccc(-c4ccc5[nH]ccc5c4)cc32)cc1 [Example D5, 6-(1H-indol-5-yl)-1-[4-(propan-2-yloxy)phenyl]-1H-indole]	> 25	27.8	12.5	5.87	> 25	
CC(C)Oc1ccc(-c2nnc3ccc(-c4ccc5[nH]ccc5c4)cn23)cc1 [Example D7, 5-{3-[4-(propan-2-yloxy)phenyl]-[1,2,4]triazolo[4,3-a]pyridin-6-yl}-1H-indole]	26.3	18	4.1	1870	> 25	
CC(C)Oc1ccc(-c2cn3c(-c4ccc5[nH]ccc5c4)cnc3cn2)cc1 [Example D13, 5-{6-[4-(propan-2-yloxy)phenyl]imidazo[1,2-a]pyrazin-3-yl}-1H-indole]	10.3	3.29	12.3	> 100000	12	
CC(C)Oc1ccc(-c2ccc3noc(-c4ccc(OC(C)C)cc4)c3c2)cc1 [Example D18, 3,5-bis[4-(propan-2-yloxy)phenyl]-2,1-benzoxazole]	> 25	5.58	> 25	> 100000	> 25	
CC(C)Oc1ccc(-c2ccn3cnc(-c4ccc(OC(C)C)cc4)c3c2)cc1 [Example D19, 1,7-bis[4-(propan-2-yloxy)phenyl]imidazo[1,5-a]pyridine]	> 25	> 25	> 25	7540	> 25	
CC(C)Oc1ccc(-c2ccc3nc(C(N)=O)c(-c4ccc(OC(C)C)cc4)n3c2)cc1 [Example D22, 3,6-bis[4-(propan-2-yloxy)phenyl]imidazo[1,2-a]pyridine-2-carboxamide]	> 25	> 25	> 25	49500	> 25	
CC(C)Oc1ccc(-c2ccc3nc(C#N)c(-c4ccc(OC(C)C)cc4)n3c2)cc1 [Example D23, 3,6-bis[4-(propan-2-yloxy)phenyl]imidazo[1,2-a]pyridine-2-carbonitrile]	> 25	3.78	27.4	> 100000	> 25	
